Laboratory results: patent US20190031613A1, “COMPOUNDS AND METHODS FOR THEIR USE IN THE TREATMENT OF MALARIA” (University of South Florida, priority 2016, published 2019)
Entries after “also recorded” stand apart in the source; their conditions may differ. Where two headings read alike, the source gives them in different places.

Legend:
P. berghei-GFP parasites = experiment: in vivo efficacy, modified Thompson test; set-up: species or system mice
Experimental: Prodrug 6d was orally tested for in vivo efficacy at four doses (0.3 mg/kg, 1.0 mg/kg, 3.0 mg/kg, and 10 mg/kg) in 0.5% aqueous HEC solution.

[1] = in vivo pharmacokinetics in mice (plasma, LC/MS-MS)
Experimental: Plasma exposure of prodrug 6e and parent compound 1b was determined following a single oral administration at 10 mg/kg and 3 mg/kg doses in 0.5% aqueous HEC (FIG. 5b).
Compounds 1b and its prodrug 6e were administered as a single dose (10 mg/kg) in 0.5% HEC using freshly prepared solution. Parent compound 1d and its prodrugs 6c and 6d were administered as a single dose of 50 mg/kg using the same vehicle. The blood was collected in prepared 5 ml syringe containing heparin via cardiac puncture and put into 15 mL conical tube on ice. Five mice were used per one time point at 0.5 h, 1 h, 2 h, 4 h, 8 h and 24 h […] plus 2 mice as a control (not-treated). The blood was then centrifuged for 5 min at 4000 rpm and plasma supernatant collected while avoiding the whole blood pellet at the bottom of the tube. The plasma was stored at −80° C. until the day of LC/MS-MS analysis.
Compound concentrations were quantitated in plasma samples by LC/MS-MS using an Agilent triple quadrupole instrument. Chromatographic separation was conducted using an Agilent HPLC with Phenomenex Kinetex C18 column (2.6 μm particle size, 50-4.6 mm i.d.) equipped with a Phenomenex Security Guard column. The mobile phase (1.25 mL/min) consisted of 0.05% formic acid in water and 0.05% formic acid in acetonitrile mixed using a linear gradient over 7 minutes. […] Plasma samples and calibration standards were prepared by protein precipitation with acetonitrile (3 parts acetonitrile to 1 part plasma), followed by centrifugation and analysis of the supernatant. Sample concentrations were determined by comparison to calibration standards prepared in blank plasma and assayed using the same conditions. The analytical lower limit of quantitation in plasma was typically 0.75-1.00 nM and accuracy, precision and recovery were within acceptable limits.
The plasma was first warmed up on ice for about 1 hour. Then 50 μL of plasma sample was precipitated with 150 μL of cold acetonitrile with internal standard (133 nM) P4Q-95^20) following by centrifugation at 4,000 rpm for 5 min at 4° C. and transfer˜150 μL of the supernatant to LCMS vial. The samples were analyzed using Agilent triple quadruple instrument in triplicates (5 mice×3 injections for each time point). The chemical structure of P4Q-95^20 is shown below:
The calibration curve for 1d was linear in 1 to 500 nM range so samples were diluted if needed to fit this linearity and then concentration recalculated accordingly. Calibration curve was run each time following the actual PK measurements and used for that particular compound.

[2] = aqueous stability and parent compound release by quantitative HPLC; conditions: for parent compound released: parent 1d
Experimental: The stability of prodrugs in aqueous media and the release of parent compound was followed for 10 h using HPLC in triplicates.
Compound stability was assessed using quantitative HPLC in buffers at different pHs (2, 4, 7), in a simulated gastric fluid (SGF) and in a simulated intestinal fluid (SIF).

P. berghei = conditions: cited from earlier work; for PO dose, single exposure radical cure: lowest single-cure dose as reported
[3] = 10 mg/kg PO, three daily doses days 3-5 PI, 0.5% aqueous HEC
[4] = 10 mg/kg PO, three daily doses days 3-5 PI, 0.5% aqueous HEC, untreated 13
[5] = 50 mg/kg PO, three daily doses days 3-5 PI, 0.5% aqueous HEC
[6] = oral dose 50.0 mg/kg, 0.5% aqueous HEC
[7] = single PO dose 0.01 mg/kg on day 3 PI
[8] = single PO dose 0.03 mg/kg on day 3 PI
[9] = single PO dose 0.1 mg/kg on day 3 PI
[10] = single PO dose 0.3 mg/kg on day 3 PI
[11] = single PO dose 3 mg/kg on day 3 PI
[12] = single PO dose 10 mg/kg on day 3 PI, 0.5% aqueous HEC
[13] = Table 3 control: 10 mg/kg PO, three daily doses days 3-5 PI

**Q.** With `CNCCOC(=O)OCOc1c(-c2ccc(C(F)(F)F)cc2)c(C)nc2cc(OC)c(Cl)cc12.Cl` [6c, 6-Chloro-7-methoxy-2-methyl-3-(4-(triftuoromethyl)phenyl)-4-(((2-(methylammonio)ethoxycarbonyl)oxy)methoxy)quinoline, chloride salt] as the compound, how does the “Suppression [%] day 6 PI” value (P. berghei-GFP parasites; [3]) read?
**A.** 75%

**Q.** What about the “Day of death (avg)” value (P. berghei-GFP parasites; [4]) of the same compound?
**A.** 13

**Q.** What about the “Day of death (avg)” value (P. berghei-GFP parasites; [5]) of the same compound?
**A.** 16

**Q.** And the “Suppression [%] day 6 PI” value (P. berghei-GFP parasites; [5])?
**A.** 96%

**Q.** And the “AUC0→24” value [1, 6]?
**A.** 8031 µmol·min/L

**Q.** And the “CL” value [1, 6]?
**A.** 11.6 mL·kg/min

**Q.** And the “Vd” value [1, 6]?
**A.** 7.8 L/kg

**Q.** What about the “t1/2 apparent” value [1, 6] of the same compound?
**A.** 7.7 h

**Q.** And the “tmax” value [1, 6]?
**A.** 4 h

**Q.** And the Cmax ([1]; read-out: Cmax [μmol/L], oral dose 50.0 mg/kg, 0.5% aqueous HEC, parent in plasma)?
**A.** 12 µmol/L

**Q.** And the “AUC of 1d improved vs dosing of 1d” value ([1]; single oral 50 mg/kg)?
**A.** 36 fold

**Q.** What about the “maximum plasma concentration of 1d” value ([1]; single oral 50 mg/kg of prodrug, 0.5% aqueous HEC) of the same compound?
**A.** 12 µM

**Q.** And the parent compound released ([2]; in 1 h at pH 7.0)?
**A.** > 90%

**Q.** And the parent compound released ([2]; in 10 h at pH 4.0)?
**A.** > 25%

**Q.** For `CNCCCOC(=O)OCOc1c(-c2ccc(C(F)(F)F)cc2)c(C)nc2cc(OC)c(Cl)cc12.Cl` [6d, 6-Chloro-7-methoxy-2-methyl-3-(4-(trifluoromethyl)phenyl)-4-(((3-(methylammonio)propyloxycarbonyl)oxy)methoxy)quinoline, chloride salt], which “Suppression [%] day 6 PI” value (P. berghei-GFP parasites; [3]) is on record?
**A.** 82%

**Q.** And the “Day of death (avg)” value (P. berghei-GFP parasites; [4])?
**A.** 13

**Q.** What about the “Day of death (avg)” value (P. berghei-GFP parasites; [5]) of the same compound?
**A.** 14

**Q.** What about the “Suppression [%] day 6 PI” value (P. berghei-GFP parasites; [5]) of the same compound?
**A.** 96%

**Q.** And the “life span of treated animals relative to untreated controls” value (P. berghei-GFP parasites; 10 and 50 mg/kg PO)?
**A.** do not significantly extend the life span

**Q.** And the “AUC0→24” value ([1]; mouse, in vivo, po, 50 mg/kg)?
**A.** 11664 µmol·min/L

**Q.** And the “AUC of 1d improved vs dosing of 1d” value ([1]; mouse, in vivo, po, 50 mg/kg)?
**A.** 52 fold

**Q.** And the “CL” value ([1]; mouse, in vivo, po, 50 mg/kg)?
**A.** 7.8 mL·kg/min

**Q.** What about the Cmax ([1]; mouse, in vivo, po, 50 mg/kg) of the same compound?
**A.** 21.2 µmol/L

**Q.** And the “Vd” value ([1]; mouse, in vivo, po, 50 mg/kg)?
**A.** 4.3 L/kg

**Q.** What about the “t1/2 apparent” value ([1]; mouse, in vivo, po, 50 mg/kg) of the same compound?
**A.** 6.4 h

**Q.** What about the “tmax” value ([1]; mouse, in vivo, po, 50 mg/kg) of the same compound?
**A.** 1 h

**Q.** And the “aqueous stability” value ([2]; buffers pH 2, 4, 7, SGF, SIF)?
**A.** stable at low pH values; also recorded: more stable than 6c

**Q.** What about the parent compound released ([2]; in 5 h at pH 7.0) of the same compound?
**A.** > 55%

**Q.** What does the source list for `CNCCCOC(=O)OCOc1c(-c2ccc(Oc3ccc(OC(F)(F)F)cc3)cc2F)c(C)nc2cc(OC)c(Cl)cc12.Cl` [6e, 6-Chloro-7-methoxy-2-methyl-3-(2-fluoro-4-(4-(trifluoromethoxy)phenoxy)phenyl)-4-(((3-(methylammonio)propyloxycarbonyl)oxy)methoxy)quinoline, chloride salt]?
**A.** Day of death (avg) (P. berghei-GFP parasites; [7]): 13; Suppression [%] day 6 PI (P. berghei-GFP parasites; [7]): <1%; Day of death (avg) (P. berghei-GFP parasites; [8]): 13; Suppression [%] day 6 PI (P. berghei-GFP parasites; [8]): <1%; Day of death (avg) (P. berghei-GFP parasites; [9]): 13; Suppression [%] day 6 PI (P. berghei-GFP parasites; [9]): < 1%; Day of death (avg) (P. berghei-GFP parasites; [10]): 13; Suppression [%] day 6 PI (P. berghei-GFP parasites; [10]): 57%; average suppression of parasitemia on day 13 (P. berghei-GFP parasites; single PO dose 1 mg/kg): 90%; Suppression [%] day 6 PI (P. berghei-GFP parasites; single PO dose 1 mg/kg on day 3 PI): 97%; Day of death (avg) (P. berghei-GFP parasites; single PO dose 1 mg/kg on day 3 PI, 1 mg/kg): 21; Day of death (avg) (P. berghei-GFP parasites; [11]): curative; Suppression [%] day 6 PI (P. berghei-GFP parasites; [11]): > 99%; Day of death (avg) (P. berghei-GFP parasites; [12]): curative; Suppression [%] day 6 PI (P. berghei-GFP parasites; [12]): > 99%; oral dose producing single dose cures (P. berghei-GFP parasites; single oral dose, no advanced formulation): 3 mg/kg; clearance ([1]; mouse, in vivo, po): low clearance; half-life ([1]; mouse, in vivo, po): ≥ 10 h; improvement in AUC vs parent ([1]; mouse, in vivo, po): 21 fold; improvement of Cmax vs parent ([1]; mouse, in vivo, po): 18 fold; AUC0→24 ([1]; mouse, in vivo, po, 3 mg/kg): 4818 µmol·min/L; Vd ([1]; mouse, in vivo, po, 3 mg/kg): 0.8 L/kg; tmax ([1]; mouse, in vivo, po, 3 mg/kg): 2 h; AUC0→24 ([1]; mouse, in vivo, po, 10 mg/kg): 10269 µmol·min/L; CL ([1]; mouse, in vivo, po, 10 mg/kg): 1.4 mL·kg/min; Cmax ([1]; mouse, in vivo, po, 10 mg/kg): 9.1 µmol/L; Vd ([1]; mouse, in vivo, po, 10 mg/kg): 1.6 L/kg; t1/2 apparent ([1]; mouse, in vivo, po, 10 mg/kg): 13.1 h; tmax ([1]; mouse, in vivo, po, 10 mg/kg): 4 h

**Q.** For `CCN(CC)Cc1cc(Nc2ccnc3cc(Cl)ccc23)ccc1O` [ADQ, reference compound], which “Suppression [%] day 6 PI” value (P. berghei-GFP parasites; [3]) is on record?
**A.** >99%

**Q.** What about the “Day of death (avg)” value (P. berghei-GFP parasites; [4]) of the same compound?
**A.** 21

**Q.** What about the “Day of death (avg)” value (P. berghei-GFP parasites; [13]) of the same compound?
**A.** 21

**Q.** And the “Suppression [%] day 6 PI” value (P. berghei-GFP parasites; [13])?
**A.** >99%

**Q.** With `C[C@H]1Cc2c([nH]c3cc(Cl)c(F)cc23)[C@@]2(N1)C(=O)Nc1ccc(Cl)cc12` [KAE609] as the compound, how does the “PO dose, single exposure radical cure” value (P. berghei) read?
**A.** 100 mg/kg

**Q.** For `CS(=O)(=O)c1ccc(-c2cnc(N)c(-c3ccc(C(F)(F)F)nc3)c2)cc1` [MMV390048], which “PO dose, single exposure radical cure” value (P. berghei) is on record?
**A.** 30 mg/kg

**Q.** What does the source list for `c1cc([C@H]2CC[C@]3(CC2)OO[C@]2(O3)C3CC4CC(C3)CC2C4)ccc1OCCN1CCOCC1` [OZ439]?
**A.** single oral dose that cures P. berghei-infected mice (P. berghei; clinical candidate, given in combination with ferroquine in trials): 20 mg/kg; PO dose, single exposure radical cure (P. berghei): 20 mg/kg
